In patent US9187458B2, “Cyanoquinoline derivatives” (Tianjin Hemay Bio-Tech Co., LTD., priority 2010, dated 2015):

Experiments:
Format in all cases: cell-based
SW620 cells = test: SW620 Cell Growth Inhibition Test (SRB Assay); conditions: Homo sapiens, SW-620, 91 h incubation
Experimental: SW620 Cell Growth Inhibition Test (SRB Assay)
Cell strains: SW620 (human colorectal cancer cell strains);
SRB: available from Sigmaaldrich, goods number: S9012, lot number: 047K3751. […] was reserved at the room temperature. 0.4% (w/v) of working solution was formulated with 1% of glacial acetic acid. The solution was reserved at 4° C.; anti-tumor compounds; DMSO.
Culture medium: 90% L15+10% FBS;
1. A plate (10 cm) of cells in logarithmic growth phase normally cultured was collected. The culture solution was sucked out. The plate was washed wtih 5 mL of PBS 1-2 times;
2. PBS was sucked out. […] of 0.25% pancreatin was added to infiltrate the cells for 30 s;
3. The pancreatin was sucked out. The culture plate was placed in an incubator. Digestion was carried out for about 1.5-2 min at 37° C.;
4. 4 mL of complete culture solution was added to the culture plate to stop the digestion. The cells were carefully scoured with micropipette (1 ml) to give a uniform single cell suspension;
5. Cell suspension was counted. The suspension was diluted to 1.5×10^5/ml. The resulting suspension was developed uniformly on a plate by 15000 cells/100 μl per well. The culture plate was incubated overnight under 5% CO2 at 37° C. In day 2, 100 μl of culture solution comprising a compound was added in each well, and further incubated for 91 h under 5% CO2 at 37° C.;
6. The culture solution was sucked out. 100 uL of TCA fixed cells which were diluted to 10% were added to each well. The plate was kept in a refrigerator for 1 h at 4° C.
7. TCA stationary liquid was sucked out. Each well was washed with 150 μL of ddH2O five times;
8. After the stationary liquid was cleansed, the plate was dried in the air at the room temperature;
9. 60 μL of SRB staining solution was added in each well. The well was stained for 15 min at the room temperature;
10. The SRB staining solution was sucked out. Each well was washed with 150 μL of 1% glacial acetic acid five times;
11. After the SRB staining solution was cleansed, the plate was dried in the air at the room temperature;
12. 100 μL of 10 mM Tris was added in each well, the plate was vibrated to dissolve out SRB;
13. OD values were determined at 570 nM.
To: OD values of the starting content of cells when the cells were developed on a plate;
PC: OD values of cells after normal growth in control wells without a compound;
Ti: OD values of cells after growth in test wells with a compound;
NC: Background OD values of blank wells without a compound and cells
Therefore: Ratio of cells in test wells to normal wells (% of control cell growth)=(Ti−To)/(PC−To)×100%
Ratio GI50 was concentration of a compound at the point of 50%.
Therefore: Ratio of killed cells to inoculated cells (% of killed cell)=(Ti−To)/(To−NC)×100%
LC50 was concentration point of a compound when half of the starting inoculated concentration was reached.
Concentration of a compound at this point is defined as TGI (total growth inhibition).

SK-OV-3 cells = test: SK-OV-3 Cell Growth Inhibition Test (MTT Assay); conditions: Homo sapiens, 72 h incubation
Experimental: SK-OV-3 Cell Growth Inhibition Test (MTT Assay)
Cell strains: SK-OV-3 (human ovarian cancer cell strains);
Culture medium: 90% McCoy's 5A+10% FBS;
1. A plate (10 cm) of cells in logarithmic growth phase normally cultured was collected;
2. The culture solution was sucked out. The plate was washed with 5 ml of PBS 1-2 times;
3. PBS was sucked out. 1.5 ml of 0.25% pancreatin was added to infiltrate the cells for 1 min;
4. The pancreatin was sucked out. The culture plate was placed in an incubator. Digestion was carried out for about 5 min at 37° C.;
5. 4.5 ml of complete culture solution was added to the culture plate to stop the digestion.T the cells were carefully scoured with micropipette (1 ml) to give a uniform cell suspension. The suspension was implanted into a 96-well cell culture disc by 4000 cells/100 μl per well. The culture plate was incubated overnight under 5% CO2 at 37° C. In day 2, 100 μl of culture solution comprising a compound was added in each well, and further incubated for 72 h under 5% CO2 at 37° C.
6. The culture solution was sucked out;
7. 100 μl of serum-free culture solution containing 0.5 mg/ml MTT was added in each well, and incubated for 3 h;
8. The culture solution was carefully sucked out;
9. 100 μl of DMSO was added in each well and vibrated to dissolve;
10. OD values were determined at 490 nM.
1. Calculation of Relative Inhibition Ratio The inhibition ratio of a compound on cell growth=(PC−n)/(PC−NC)×100%
IC50: Concentration of a compound where inhibition ratio was 50%. IC50 values were fitted with Origin7.5.

BxPc-3 cells = test: BxPc-3 Cell Growth Inhibition Test (MTT Assay); conditions: Homo sapiens, 72 h incubation
Experimental: BxPc-3 Cell Growth Inhibition Test (MTT Assay) Cell strains: BxPC-3 (human pancreatic cancer cell strains); Culture medium: 90% RPMI-1640+10% FBS; 1. A plate (10 cm) of cells in logarithmic growth phase normally cultured was collected; 2. The culture solution was sucked out. […] The plate was washed with 5 ml of PBS 1-2 times; 3. PBS was sucked out. 1.5 ml of 0.25% pancreatin was added to infiltrate the cells for 1 min; 4. The pancreatin was sucked out. The culture plate was placed in an incubator. Digestion was carried out for about 5 min at 37° C.; 5. 4.5 ml of complete culture solution was added to the culture plate to stop the digestion. The cells were carefully scoured with micropipette (1 ml) to give a uniform cell suspension. The suspension was implanted into a 96-well cell culture plate by 5000 cells/100 μl per well. The culture plate was incubated overnight under 5% CO2 at 37° C. In day 2, 100 μl of culture solution comprising a compound was added in each well, and further incubated for 72 h under 5% CO2 at 37° C. 6. The culture solution was sucked out; 7. 100 μl of serum-free culture solution containing 0.5 mg/ml MTT was added in each well, and incubated for 3 h; 8. The culture solution was carefully sucked out; 9. 100 μl of DMSO was added in each well and vibrated to dissolve; 10. OD values were determined at […]. 1. Calculation of Relative Inhibition Ratio The inhibition ratio of a compound on cell growth=(PC−n)/(PC−NC)×100% IC50: Concentration of a compound where inhibition ratio was 50%. IC50 values were fitted with Origin7.5.

| SMILES | GI50 (SW620 cells) [nM] | IC50 (SK-OV-3 cells) [nM] | IC50 (BxPc-3 cells) [nM] |
| --- | --- | --- | --- |
| CN(C)C/C=C/C(=O)Nc1cc2c(Nc3ccc(OCc4cccc(F)c4)c(Cl)c3)c(C#N)cnc2cc1OC1CCOC1 (centres unmarked) [Example 9, (E)-N-(4-(4-(3-FLUOROBENZYLOXY)-3-CHLOROPHENYLAMINO)-3-CYANO-7-(TETRAHYDROFURAN-3-YL-OXY)QUINOLIN-6-YL)-4-(DIMETHYLAMINO)-BUT-2-ENAMIDE] | 2100 | 469 |  |
| CN(C)C/C=C/C(=O)Nc1cc2c(Nc3ccc(OCc4ccccn4)c(Cl)c3)c(C#N)cnc2cc1OC1CCOC1 (centres unmarked) [Example 21, (E)-N-(4-(3-CHLORO-4-(PYRIDIN-2-YL-METHOXY)PHENYLAMINO)-3-CYANO-7-(TETRAHYDROFURAN-3-YL-OXY)QUINOLIN-6-YL)-4-(DIMETHYLAMINO)-BUT-2-ENAMIDE] | 1780 |  |  |
| CN(C)C/C=C/C(=O)Nc1cc2c(Nc3ccc(OCc4ccccn4)c(Cl)c3)c(C#N)cnc2cc1O[C@H]1CCOC1 [Example 138, (S,E)-N-(4-(3-CHLORO-4-(PYRIDIN-2-YL-METHOXY)PHENYLAMINO)-3-CYANO-7-(TETRAHYDROFURAN-3-YL-OXY)QUINOLIN-6-YL)-4-(DIMETHYLAMINO)-BUT-2-ENAMIDE] | 1780 | 457 | 337 |
| CN(C)C/C=C/C(=O)Nc1cc2c(Nc3ccc(OCc4ccccn4)c(Cl)c3)c(C#N)cnc2cc1O[C@@H]1CCOC1 [Example 139, (R,E)-N-(4-(3-CHLORO-4-(PYRIDIN-2-YL-METHOXY)PHENYLAMINO)-3-CYANO-7-(TETRAHYDROFURAN-3-YL-OXY)QUINOLIN-6-YL)-4-(DIMETHYLAMINO)-BUT-2-ENAMIDE] | 1900 | 371 | 188 |

Other lines, results leading:

| GI50 (SW620 cells) [nM] | IC50 (SK-OV-3 cells) [nM] | IC50 (BxPc-3 cells) [nM] | SMILES |
| --- | --- | --- | --- |
| 3500 | 409 |  | CN(C)C/C=C/C(=O)Nc1cc2c(Nc3ccc(F)c(Cl)c3)c(C#N)cnc2cc1OC1CCOC1 (centres unmarked) [Example 4, (E)-N-(4-(3-CHLORO-4-FLUOROPHENYLAMINO)-3-CYANO-7-(TETRAHYDROFURAN-3-YL-OXY)QUINOLIN-6-YL)-4-(DIMETHYLAMINO)-BUT-2-ENAMIDE] |
| 1680 | 195 |  | C#Cc1cccc(Nc2c(C#N)cnc3cc(OC4CCOC4)c(NC(=O)/C=C/CN(C)C)cc23)c1 (centres unmarked) [Example 5, (E)-N-(3-CYANO-4-(3-ETHYNYLPHENYLAMINO)-7-(TETRAHYDROFURAN-3-YL-OXY)QUINOLIN-6-YL)-4-(DIMETHYLAMINO)-BUT-2-ENAMIDE] |
| 2300 | 286 |  | C#Cc1cccc(Nc2c(C#N)cnc3cc(O[C@H]4CCOC4)c(NC(=O)/C=C/CN(C)C)cc23)c1 [Example 140, (S,E)-N-(3-CYANO-4-(3-ETHYNYLPHENYLAMINO)-7-(TETRAHYDROFURAN-3-YL-OXY)QUINOLIN-6-YL)-4-(DIMETHYLAMINO)-BUT-2-ENAMIDE] |
| 1400 | 283 |  | C#Cc1cccc(Nc2c(C#N)cnc3cc(O[C@@H]4CCOC4)c(NC(=O)/C=C/CN(C)C)cc23)c1 [Example 141, (R,E)-N-(3-CYANO-4-(3-ETHYNYLPHENYLAMINO)-7-(TETRAHYDROFURAN-3-YL-OXY)QUINOLIN-6-YL)-4-(DIMETHYLAMINO)-BUT-2-ENAMIDE] |
| 2300 | 553 | 416 | CN(C)C/C=C/C(=O)Nc1cc2c(Nc3ccc(F)c(Cl)c3)c(C#N)cnc2cc1O[C@H]1CCOC1 [Example 142, (S,E)-N-(4-(3-CHLORO-4-FLUOROPHENYLAMINO)-3-CYANO-7-(TETRAHYDROFURAN-3-YL-OXY)QUINOLIN-6-YL)-4-(DIMETHYLAMINO)-BUT-2-ENAMIDE] |
